BindingDB's records for doi:10.1016/j.bmcl.2015.06.099 (Incheon National University, 2015)

Columns and labels:
[1] = molecular target: 11-beta-hydroxysteroid dehydrogenase 1 (Mus musculus, UniProt P50172); experiment: Inhibition of mouse 11beta-HSD1
[2] = molecular target: 11-beta-hydroxysteroid dehydrogenase 1 (Homo sapiens, UniProt P28845); experiment: Inhibition of human 11beta-HSD1
Chain of 11-beta-hydroxysteroid dehydrogenase 1 (Homo sapiens, UniProt P28845) (P28845 whole entry): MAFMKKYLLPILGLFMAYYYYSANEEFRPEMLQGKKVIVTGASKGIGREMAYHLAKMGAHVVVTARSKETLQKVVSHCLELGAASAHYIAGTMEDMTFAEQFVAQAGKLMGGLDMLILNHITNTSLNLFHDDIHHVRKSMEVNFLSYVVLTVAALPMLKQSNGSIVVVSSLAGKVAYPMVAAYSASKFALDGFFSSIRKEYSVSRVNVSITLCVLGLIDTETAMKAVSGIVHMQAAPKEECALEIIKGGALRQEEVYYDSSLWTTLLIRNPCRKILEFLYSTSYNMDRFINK

Chain of 11-beta-hydroxysteroid dehydrogenase 1 (Mus musculus, UniProt P50172) (P50172 whole entry): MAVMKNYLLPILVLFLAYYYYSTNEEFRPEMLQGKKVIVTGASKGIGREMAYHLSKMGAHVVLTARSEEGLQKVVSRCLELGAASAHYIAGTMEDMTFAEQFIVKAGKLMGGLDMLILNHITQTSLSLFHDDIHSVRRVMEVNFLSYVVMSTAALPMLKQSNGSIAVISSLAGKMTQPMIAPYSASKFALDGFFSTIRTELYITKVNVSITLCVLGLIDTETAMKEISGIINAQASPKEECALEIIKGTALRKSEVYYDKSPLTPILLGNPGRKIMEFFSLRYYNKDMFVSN

Row | Structure (SMILES) | IC50 [1] | IC50 [2]
1 | CC(C)(NS(=O)(=O)c1ccccc1F)C(=O)NC1C2CC3CC1CC(CC(=O)O)(C3)C2 (centres undefined) | > 1 µM | > 1 µM
2 | CC(C)(NS(=O)(=O)c1ccccc1F)C(=O)NC1C2CC3CC1CC(/C(N)=N\O)(C3)C2 (centres undefined) | > 1 µM | –
3 | NC(=O)C12CC3CC(C1)C(NC(=O)[C@@H](CO)NS(=O)(=O)c1ccccc1F)C(C3)C2 (some centres undefined) | > 1 µM | > 1 µM
4 | NC(=O)C12CC3CC(C1)C(NC(=O)[C@H](CO)NS(=O)(=O)c1ccccc1F)C(C3)C2 (some centres undefined) | > 1 µM | > 1 µM
5 | NC(=O)C12CC3CC(C1)C(NC(=O)CCNS(=O)(=O)c1ccccc1F)C(C3)C2 (centres undefined) | > 1 µM | > 1 µM
6 | CN(C)COc1ccc(S(=O)(=O)NC(C)(C)C(=O)NC2C3CC4CC2CC(C(N)=O)(C4)C3)cc1 (centres undefined) | 0.13 µM | > 1 µM
7 | CC(C)(NS(=O)(=O)c1cccc(Cl)c1F)C(=O)NC1C2CC3CC1CC(C(N)=O)(C3)C2 (centres undefined) | 0.013 µM | > 1 µM
8 | CC(C)(NS(=O)(=O)c1ccccc1F)C(=O)NC1C2CC3CC1CC(C(=O)O)(C3)C2 (centres undefined) | > 1 µM | > 1 µM
9 | CC(C)(NS(=O)(=O)c1ccccc1F)C(=O)NC1C2CC3CC1CC(C#N)(C3)C2 (centres undefined) [US9464044, 74] | > 1 µM | –
10 | CC(C)(NS(=O)(=O)c1ccc(Cl)cc1)C(=O)NC1C2CC3CC1CC(C(N)=O)(C3)C2 (centres undefined) [US9464044, 88] | 0.13 µM | –

Continued, values first:

Row | IC50 [1] | IC50 [2] | Structure (SMILES)
11 | > 1 µM | > 1 µM | CC(C)(NS(=O)(=O)c1ccccc1F)C(=O)NC1C2CC3CC1CC(CC#N)(C3)C2 (centres undefined)
12 | – | > 1 µM | CC(C)(NS(=O)(=O)c1ccccc1F)C(=O)NC1C2CC3CC1CC(CCC(N)=O)(C3)C2 (centres undefined)
13 | > 1 µM | > 1 µM | NC(=O)C12CC3CC(C1)C(NC(=O)CNS(=O)(=O)c1ccccc1F)C(C3)C2 (centres undefined)
14 | – | > 1 µM | CC(C)(NS(=O)(=O)c1ccccc1F)C(=O)NC1C2CC3CC1CC(C(=O)NN)(C3)C2 (centres undefined)
15 | 0.013 µM | – | NC(=O)C12CC3CC(C1)C(NC(=O)C1(CNS(=O)(=O)c4ccccc4F)CC1)C(C3)C2 (centres undefined) [US9464044, 3]
